{
  "source": "paper PMC3319978",
  "about": "(Biochemical Pharmacology, 2011)",
  "key": {"[1]": {"test_system": "ATCC35218 E. coli blaTEM-1", "experiment": "Disc diffusion susceptibility testing", "settings": "10 μg of ampicillin and each inhibitor, MH agar, 37 °C, 18 h"}, "PDC-3 β-lactamase": {"biological_target": "PDC-3 β-lactamase (Pseudomonas aeruginosa, UniProt P24735, T105A)", "experiment": "Inhibition of nitrocefin hydrolysis", "type": "biochemical"}, "β-lactamases": {"test_system": "β-lactamases", "settings": "serve as excellent substrates of the β-lactamases; ref 27 (Fisher et al.); cited from earlier work"}},
  "data": [
    {"smiles": "CC1(C)S[C@@H]2[C@H](NC(=O)[C@H](N)c3ccccc3)C(=O)N2[C@H]1C(=O)O", "note": "[Ampicillin, ampicillin]", "values": [
      {"measurement": "Zone diameter", "setting": "[1]", "result": 6, "unit": "mm"}
    ]},
    {"smiles": "O=C(O)[C@H]1/C(=C/CO)O[C@@H]2CC(=O)N21", "note": "[Clavulanic acid, clavulanic acid]", "values": [
      {"measurement": "IC50", "setting": "PDC-3 β-lactamase", "result": "> 100", "unit": "µM"}
    ]},
    {"smiles": "CC1(C)[C@H](C(=O)O)N2C(=O)[C@@H](NC(=O)Cc3ccccc3)[C@H]2S1(=O)=O", "note": "[compound 19, penicillin G sulfone]", "values": [
      {"measurement": "β-Lactamase inhibition", "setting": "β-lactamases", "result": "poor β-lactamase inhibitors"}
    ]}
  ]
}
